Read-outs that look alike come from different tables or passages of the source.
What was measured:
[1] = tested on: A2058 (human metastatic melanoma) cells; assay: Colorimetric alamarBlue assay, long treatment; settings: Homo sapiens, A2058, 72 h, read-out: cytotoxicity expressed in IC50, A-2058
[2] = tested on: PANC-1 (human pancreatic carcinoma) cells; assay: Impedance-based viability assay (xCELLigence SP), long treatment; type: cell-based; settings: 72 h, read-out: cytotoxicity expressed in IC50, PANC-1
Source text: (Gibco®/Invitrogen Corporation, New York, NY, USA).
Data obtained from each experiment represent mathematical averages.

[3] = tested on: H2228 lung cancer cell line; assay: High-throughput screening, CellTiter-Glo cell viability assay at 100 nM; type: cell-based, human; settings: Homo sapiens, NCI-H2228, HTS, compounds at 100 nM, 72 h, read-out: cytotoxicity expressed in IC50, H2228 (results of High throughput screening)
Experimental: (§1) EBC-1 (obtained from JRCB, https://cellbank.nibiohn.go.jp/english/) and H2228 (obtained from ATCC https://www.lgcstandards-atcc.org/) cell lines were maintained according to the instructions provided by JRCB and ATCC in a 5% CO2 humidified incubator maintained at 37° C. temperature. Effect of compounds on cell viability was measured via CellTiter-Glo® luminescent cell viability assay (Promega, Madison, WI, USA). Cells were plated at 1000 cells/well onto a flat-bottomed, white 96 well plate (BRANDplates, cat. no.: 781965). After 24 h, cells were treated for 72 h with the compounds at 100 nM concentration. After the treatment, medium was removed and CellTiter-Glo® reagent was added. Untreated cells were used as control. The luminescence signal was recorded using a microplate reader (BioTek Synergy 2 Multi-Mode Reader, BioTek, Winooski, VT, USA). Cell viability data (% of untreated control cells) was evaluated with Microsoft Excel.

[4] = tested on: EBC-1 lung cancer cell line; assay: as above; type: cell-based, human; settings: Homo sapiens, EBC-1, HTS, compounds at 100 nM, 72 h, read-out: cytotoxicity expressed in IC50, EBC-1 (results of High throughput screening)
Experimental: as §1

[5] = tested on: COLO-205 (human colorectal adenocarcinoma) cells; assay: Colorimetric alamarBlue assay, long treatment; settings: COLO 205, 72 h, read-out: cytotoxicity expressed in IC50, COLO-205
Panc-1 human cell line = assay: Cytotoxicity on Panc-1, xCELLigence SP, IC50 after 24 h, 48 h, 72 h and 96 h (Example 22)
[6] = tested on: SCC-25 (tongue, squamous cell carcinoma) cells; assay: Cell viability assay, CellTiter-Glo (Example 21); type: cell-based, human; settings: 72 h treatment
Experimental: (§2) Effect of the selected compounds on cancer cell viability was measured via CellTiter-Glo® luminescent cell viability assay (Promega, Madison, WI, USA) according to the manufacturer's instructions. Cells were plated onto a flat-bottomed, white 96 well plate (BRANDplates®, cat. no.: 781965). Density of the seeded cells was optimized based on their size and growth rate, as the follows: Panc-1:750 cells/well; DU 145, PC-3, Capan-1, MIA PaCa-2, SCC-25, FaDu and EBC-1: 1000 cells/well; LNCaP, Detroit 562, MDA-MB-231 and MDA-MB-453 1500 cells/well. […] After the treatment, the luminescence signal was recorded using a microplate reader (BioTek Synergy 2 Multi-Mode Reader, BioTek, Winooski, VT, USA). Dose-response curves were generated by GraphPad Prism 8.4.2. software using a non-linear regression model (variable slope, four parameters), (see FIGS. 12-51).

[7] = tested on: Capan-1 (pancreas, adenocarcinoma) cells; assay: Cell viability assay, CellTiter-Glo (Example 21); type: cell-based, human; settings: 72 h treatment
Experimental: as §2

[8] = tested on: MDA-MB-453 (breast, carcinoma) cells; assay: Cell viability assay, CellTiter-Glo (Example 21); type: cell-based, human; settings: 72 h treatment
Experimental: as §2

[9] = tested on: MDA-MB-231 (breast, adenocarcinoma) cells; assay: Cell viability assay, CellTiter-Glo (Example 21); type: cell-based, human; settings: 72 h treatment
Experimental: as §2

[10] = tested on: Detroit 562 (pharynx, carcinoma) cells; assay: Cell viability assay, CellTiter-Glo (Example 21); type: cell-based, human; settings: 72 h treatment
Experimental: as §2

[11] = tested on: MIA PaCa-2 (pancreas, carcinoma) cells; assay: Cell viability assay, CellTiter-Glo (Example 21); type: cell-based, human; settings: 72 h treatment
Experimental: as §2

[12] = tested on: Panc-1 (pancreas, carcinoma) cells; assay: Cell viability assay, CellTiter-Glo (Example 21); type: cell-based, human; settings: 72 h treatment
Experimental: as §2

[13] = tested on: DU 145 (prostate, carcinoma) cells; assay: Cell viability assay, CellTiter-Glo (Example 21); type: cell-based, human; settings: 72 h
Experimental: as §2

[14] = tested on: EBC-1 (lung, squamous cell carcinoma) cells; assay: Cell viability assay, CellTiter-Glo (Example 21); type: cell-based, human; settings: 72 h treatment
Experimental: as §2

[15] = tested on: LNCaP (prostate, carcinoma) cells; assay: Cell viability assay, CellTiter-Glo (Example 21); type: cell-based, human; settings: 72 h
Experimental: as §2

[16] = tested on: FaDu (pharynx, squamous cell carcinoma) cells; assay: Cell viability assay, CellTiter-Glo (Example 21); type: cell-based, human; settings: 72 h treatment
Experimental: as §2

[17] = tested on: PC-3 (prostate, adenocarcinoma) cells; assay: Cell viability assay, CellTiter-Glo (Example 21); type: cell-based, human; settings: 72 h treatment
Experimental: as §2

Cc1ccccc1CN1C(=O)C2=C(CCN(Cc3ccc(C(F)(F)F)c(F)c3)C2)N2CCN=C12 [I/43]
IC50 [1]: > 10 µM | IC50 [2]: > 10 µM | IC50 [3]: > 100 nM | IC50 [4]: > 100 nM | IC50 [5]: > 10 µM

O=C1C2=C(CCN(Cc3ccccc3)C2)N2CCN=C2N1Cc1ccc([N+](=O)[O-])cc1F [I/48]
IC50 [1]: 0.5 µM | IC50 [2]: 6.16 µM | IC50 [3]: > 100 nM | IC50 [4]: > 100 nM | IC50 [5]: 25 µM

NCc1cccc(CN2C(=O)C3=C(CCN(Cc4ccc(C(F)(F)F)cc4)C3)N3CCN=C23)c1 [I/68]
IC50 [1]: > 10 µM | IC50 [2]: > 10 µM | IC50 [3]: > 100 nM | IC50 [4]: > 100 nM | IC50 [5]: > 10 µM

[N-]=[N+]=Nc1cccc(CN2CCC3=C(C2)C(=O)N(Cc2ccc(Cl)cc2)C2=NCCN23)c1 [I/133]
IC50 (Panc-1 human cell line; PANC-1, 72 h, read-out: IC50 (72 h) [nM]): 9.05 ± 0.669 nM | IC50 (Panc-1 human cell line; PANC-1, 96 h, read-out: IC50 (96 h) [nM]): 4.73 ± 0.109 nM | SCC-25 (tongue, squamous cell carcinoma) cell viability (% of control) ([6]; 3.7 nM): 102.3 ± 4.2 % of control | SCC-25 (tongue, squamous cell carcinoma) cell viability (% of control) ([6]; 11.1 nM): 72.9 ± 3.0 % of control | SCC-25 (tongue, squamous cell carcinoma) cell viability (% of control) ([6]; 100 nM): 34.7 ± 4.9 % of control | SCC-25 (tongue, squamous cell carcinoma) cell viability (% of control) ([6]; 300 nM): 40.9 ± 3.7 % of control | Capan-1 (pancreas, adenocarcinoma) cell viability (% of control) ([7]; 3.7 nM): 108.3 ± 8.3 % of control | Capan-1 (pancreas, adenocarcinoma) cell viability (% of control) ([7]; 11.1 nM): 98.8 ± 7.9 % of control | Capan-1 (pancreas, adenocarcinoma) cell viability (% of control) ([7]; 100 nM): 32.6 ± 4.0 % of control | Capan-1 (pancreas, adenocarcinoma) cell viability (% of control) ([7]; 300 nM): 34.0 ± 2.8 % of control | MDA-MB-453 (breast, carcinoma) cell viability (% of control) ([8]; 3.7 nM): 108.6 ± 19.7 % of control | MDA-MB-453 (breast, carcinoma) cell viability (% of control) ([8]; 11.1 nM): 50.1 ± 10.6 % of control | MDA-MB-453 (breast, carcinoma) cell viability (% of control) ([8]; 100 nM): 31.9 ± 1.3 % of control | MDA-MB-453 (breast, carcinoma) cell viability (% of control) ([8]; 300 nM): 31.7 ± 0.5 % of control | MDA-MB-231 (breast, adenocarcinoma) cell viability (% of control) ([9]; 3.7 nM): 101.4 ± 2.0 % of control | MDA-MB-231 (breast, adenocarcinoma) cell viability (% of control) ([9]; 11.1 nM): 100.4 ± 2.9 % of control | MDA-MB-231 (breast, adenocarcinoma) cell viability (% of control) ([9]; 100 nM): 58.2 ± 2.5 % of control | MDA-MB-231 (breast, adenocarcinoma) cell viability (% of control) ([9]; 300 nM): 56.4 ± 3.5 % of control | Detroit 562 (pharynx, carcinoma) cell viability (% of control) ([10]; 3.7 nM): 47.1 ± 16.0 % of control | Detroit 562 (pharynx, carcinoma) cell viability (% of control) ([10]; 11.1 nM): 31.1 ± 6.5 % of control | Detroit 562 (pharynx, carcinoma) cell viability (% of control) ([10]; 100 nM): 28.8 ± 3.6 % of control | Detroit 562 (pharynx, carcinoma) cell viability (% of control) ([10]; 300 nM): 31.3 ± 4.1 % of control | MIA PaCa-2 (pancreas, carcinoma) cell viability (% of control) ([11]; 3.7 nM): 104.0 ± 17.3 % of control | MIA PaCa-2 (pancreas, carcinoma) cell viability (% of control) ([11]; 11.1 nM): 92.1 ± 13.2 % of control | MIA PaCa-2 (pancreas, carcinoma) cell viability (% of control) ([11]; 100 nM): 18.4 ± 7.8 % of control | MIA PaCa-2 (pancreas, carcinoma) cell viability (% of control) ([11]; 300 nM): 17.4 ± 7.9 % of control | Panc-1 (pancreas, carcinoma) cell viability (% of control) ([12]; 3.7 nM): 108.9 ± 10.2 % of control | Panc-1 (pancreas, carcinoma) cell viability (% of control) ([12]; 11.1 nM): 94.1 ± 4.0 % of control | Panc-1 (pancreas, carcinoma) cell viability (% of control) ([12]; 100 nM): 56.1 ± 3.7 % of control | Panc-1 (pancreas, carcinoma) cell viability (% of control) ([12]; 300 nM): 55.7 ± 2.5 % of control | DU 145 cell viability ([13]; 3.7 nM): 98.8 ± 6.7 % of control | DU 145 cell viability ([13]; 11.1 nM): 45.7 ± 4.4 % of control | DU 145 cell viability ([13]; 100 nM): 8.0 ± 2.0 % of control | DU 145 cell viability ([13]; 300 nM): 8.1 ± 2.6 % of control | EBC-1 (lung, squamous cell carcinoma) cell viability (% of control) ([14]; 3.7 nM): 97.1 ± 6.0 % of control | EBC-1 (lung, squamous cell carcinoma) cell viability (% of control) ([14]; 11.1 nM): 60.1 ± 6.7 % of control | EBC-1 (lung, squamous cell carcinoma) cell viability (% of control) ([14]; 100 nM): 23.2 ± 0.7 % of control | EBC-1 (lung, squamous cell carcinoma) cell viability (% of control) ([14]; 300 nM): 22.2 ± 1.3 % of control | LNCaP cell viability ([15]; 3.7 nM): 95.9 ± 6.1 % of control | LNCaP cell viability ([15]; 11.1 nM): 33.4 ± 3.1 % of control | LNCaP cell viability ([15]; 100 nM): 12.3 ± 1.1 % of control | LNCaP cell viability ([15]; 300 nM): 13.3 ± 1.2 % of control | FaDu (pharynx, squamous cell carcinoma) cell viability (% of control) ([16]; 3.7 nM): 100.0 ± 6.2 % of control | FaDu (pharynx, squamous cell carcinoma) cell viability (% of control) ([16]; 11.1 nM): 70.7 ± 13.1 % of control | FaDu (pharynx, squamous cell carcinoma) cell viability (% of control) ([16]; 100 nM): 25.3 ± 6.4 % of control | FaDu (pharynx, squamous cell carcinoma) cell viability (% of control) ([16]; 300 nM): 24.6 ± 6.8 % of control | PC-3 (prostate, adenocarcinoma) cell viability (% of control) ([17]; 3.7 nM): 105.6 ± 1.8 % of control | PC-3 (prostate, adenocarcinoma) cell viability (% of control) ([17]; 11.1 nM): 83.5 ± 6.4 % of control | PC-3 (prostate, adenocarcinoma) cell viability (% of control) ([17]; 100 nM): 32.6 ± 3.3 % of control | PC-3 (prostate, adenocarcinoma) cell viability (% of control) ([17]; 300 nM): 32.9 ± 4.6 % of control

Reference: US20230295162A1 (EÖTVÖS LORÁND TUDOMÁNYEGYETEM, priority 2020, published 2023)
